Data reported in ChEMBL document CHEMBL1201862, “PubChem BioAssay data set” (2004).
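Interpolation was linear, between the two tested concentrations surrounding the appropriate level; five concentrations were tested over 48 hours in 96-well plates. GI50 = concentration required for 50% inhibition of growth.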 Active and inactive are the calls of the source. Cut-off read from the data, not from the text of the source: active = GI50 up to about 1.1 µM and inactive = higher.

Tests used:
Test in all cases: DTP human tumour cell line panel, 48 h
OVCAR-8 = test system: OVCAR-8
SNB-19 = test system: SNB-19
IGROV-1 = test system: IGROV-1
NCI-H522 = test system: NCI-H522
A549 = test system: A549
OVCAR-4 = test system: OVCAR-4
HT-29 = test system: HT-29
U-251 = test system: U-251
NCI/ADR-RES = test system: NCI/ADR-RES
NCI-H23 = test system: NCI-H23
786-0 = test system: 786-0
SK-MEL-2 = test system: SK-MEL-2
SF-539 = test system: SF-539
ACHN = test system: ACHN
MCF7 = test system: MCF7
T47D = test system: T47D
PC-3 = test system: PC-3
DU-145 = test system: DU-145
SF-295 = test system: SF-295
CCRF-CEM = test system: CCRF-CEM

Measured: GI50

Cc1cc(N(CCC#N)CCC#N)ccc1/C=N/NC(=O)c1ccccc1
inactive: OVCAR-8 23.5 µM | SNB-19 > 59.2 µM | IGROV-1 12.9 µM | NCI-H522 8.34 µM | A549 24.4 µM | OVCAR-4 65.8 µM | HT-29 3.79 µM | U-251 22.5 µM | NCI/ADR-RES 8.63 µM | NCI-H23 25.2 µM | 786-0 31.6 µM | SK-MEL-2 52.8 µM | SF-539 7.76 µM | ACHN 85.3 µM | MCF7 7.82 µM | T47D 24.8 µM | PC-3 21.8 µM | DU-145 26.1 µM | SF-295 12.9 µM | CCRF-CEM 23.1 µM
